Reference: patent US20230150920A1, “SALTS AND SOLID FORMS OF 4-BROMO-2,5-DIMETHOXYPHENETHYLAMINE” (priority 2021, published 2023)
“Also recorded” adds a separate entry of the source. Where two headings read alike, the source gives them in different places.

Legend:
[1] = Dynamic vapor sorption/desorption (DVS), hygroscopicity; assay type: physicochemical; settings: for Water uptake (5-85% RH) %: 5-85% RH part of sorption; for Water uptake (85-95% RH) %: 85-95% RH part of sorption; for Hygroscopicity: grade in words, from DVS; for Water uptake (5-95% RH) %: total
Description: The active pharmaceutical ingredient (API), 4-bromo-2,5-dimethoxyphenethylamine hydrochloride, is characterized to evaluate its physical properties. The evaluation is performed by X-ray powder diffraction (XRPD), polarized light microscopy (PLM), differential scanning calorimetry (DSC), thermogravimetry (TG), dynamic vapor sorption/desorption (DVS), and/or solubility testing in organic solvents, water, and mixed solvent systems. XRPD data are used to assess crystallinity. PLM data are used to evaluate crystallinity and particle size/morphology. DSC data are used to evaluate melting point, thermal stability, and crystalline form conversion. TG data are used to evaluate if the API is a solvate or hydrate, and to evaluate thermal stability. DVS data are used to evaluate hygroscopicity of the API and if hydrates can be formed at high relative humidity.
The form characterized in FIGS. 1 and 2 is designated as Form A herein. […] A sharp endotherm at 238° C. in the DSC thermogram is attributed to melting.

[2] = Dynamic vapor sorption (DVS) with XRPD of the post-DVS sample; assay type: physicochemical; settings: for hygroscopicity based on DVS data / moisture gain by DVS / moisture gain by DVS, equivalent moles of water: 25° C.; for hygroscopicity based on DVS data: 5 to 95% RH; for moisture gain by DVS / moisture gain by DVS, equivalent moles of water: adsorption 5 to 95% RH; for post-DVS XRPD result: XRPD of the post-DVS sample; for DVS desorption weight loss, 85-5% RH: desorption 85-5% RH; for DVS desorption weight loss, 95-85% RH: desorption 95-85% RH; for behaviour on desorption / form change by XRPD of post-DVS sample: desorption 95 to 5% RH; for DVS sorption weight gain, 5-85% RH: sorption 5-85% RH; for DVS sorption weight gain, 85-95% RH: sorption 85-95% RH; for DVS desorption weight loss, 95-5% RH: desorption 95-5% RH; for DVS sorption weight gain, 5-95% RH: sorption 5-95% RH
Description: Dynamic Vapor Sorption (DVS) analysis was carried out using a TA Instruments Q5000 Dynamic Vapor Sorption analyzer. The instrument was calibrated with standard weights and a sodium bromide standard for humidity. Approximately 10-25 mg of sample was loaded into a metal-coated quartz pan for analysis. The sample was analyzed at 25° C. with a maximum equilibration time of one hour in 10% relative humidity (RH) steps from 5 to 95% RH (adsorption cycle) and from 95 to 5% RH (desorption cycle). The movement from one step to the next occurred either after satisfying the equilibrium criterion of 0.01% weight change or, if the equilibrium criterion was not met, after one hour. The percent weight change values were calculated using Microsoft Excel.
(§1) The DVS analysis was carried out using a TA Instruments Q5000 Dynamic Vapor Sorption analyzer. 13.5 mg of sample was loaded into a metal-coated quartz pan for analysis. After equilibration to 5% relative humidity (RH), the sample was analyzed at 25° C. in 10% RH steps from 5 to 95% RH (adsorption cycle) and from 95 to 5% RH (desorption cycle). The movement from one step to the next occurred either after satisfying the equilibrium criterion of 0.01% weight change in 5 minutes or, if the equilibrium criterion was not met, after 90 minutes. The percent weight change values are calculated using Microsoft Excel®.
as §1, with “DVS analyses were” for “DVS analysis was”, “analyzer. Approximately 7-11” for “analyzer. 13.5”, “equilibration at” for “equilibration to”, “values were” for “values are”
as §1, with “analyzer. Approximately 2” for “analyzer. 13.5”, “equilibration at” for “equilibration to”, “values were” for “values are”

[3] = Deliquescence at 75% RH at ambient temperature; assay type: physicochemical
[4] = Slurry
Description: The sample was then centrifuged, while still warm, and the mother liquor was decanted. The isolated solids were air-dried and analyzed by XRPD.

[5] = several days at 75% RH at ambient temperature

Molecule	Hygroscopicity: weight gain ([1]; <85% RH)	Hygroscopicity: weight gain ([1]; >85% RH)	Hygroscopicity [1]	Water uptake (5-95% RH) % ([1]; 5-95% RH) [%]	hygroscopicity based on DVS data [2]	moisture gain by DVS [2] [%]	moisture gain by DVS, equivalent moles of water [2]	post-DVS XRPD result [2]	DVS desorption weight loss, 85-5% RH [2]	DVS desorption weight loss, 95-85% RH [2]	behaviour on desorption / form change by XRPD of post-DVS sample [2]	DVS desorption total loss [2]	DVS sorption weight gain, 5-85% RH [2]	DVS sorption weight gain, 85-95% RH [2]	DVS sorption total gain [2]	deliquescence ([3]; at 75% RH)	deliquescence [3, 5]	Hygroscopicity: weight gain ([1]; 5-95% RH)	DVS desorption weight loss, 95-5% RH [2]	DVS sorption weight gain, 5-95% RH [2]	further results
2C-B glycolate	RH: 0.9%	RH: 2.7% gain	Mod. hygroscopic; <85%	3.6	moderately hygroscopic	3.6	0.7 mol	Consistent with Glycolate	85-5% RH: 1.1% loss	95-85% RH: 2.6% loss	form change is not apparent by XRPD	Total loss: 3.7%	5-85% RH: 0.9% gain	85-95% RH: 2.7% gain	Total gain: 3.6%	Did not deliquesce	not observed				Water uptake (5-85% RH) % [1]: 0.9%; Water uptake (85-95% RH) % [1]: (5-85), 2.7 (85-95) %; moisture gain by DVS above 85% RH ([2]; above 85% RH): 2.7%
COc1cc(CCN)c(OC)cc1Br.O=C(O)C(O)C(O)C(=O)O [2C-B tartrate, 4-bromo-2,5-dimethoxyphenethylamine (2C-B) tartrate]																					XRPD result after slurry ([4]; ACN, 50° C., 9 days): Tartrate (Form 1); XRPD result after slurry ([4]; DMF/acetone 50/50, RT): Tartrate (Form 1); XRPD result after slurry ([4]; EtOAc, 50° C., 9 days): Tartrate (Form 1); XRPD result after slurry ([4]; EtOAc/DMSO 71/29, RT): Tartrate (Form 1) +; XRPD result after slurry ([4]; EtOH, 50° C., 9 days): Tartrate (Form 1); XRPD result after slurry ([4]; EtOH/H2O 50/50, aw = 0.89, RT): Tartrate (Form 1); XRPD result after slurry ([4]; EtOH/H2O 80/20, aw = 0.70, RT): Tartrate (Form 1); XRPD result after slurry ([4]; EtOH/H2O 90/10, aw = 0.49, RT): Tartrate (Form 1); XRPD result after slurry ([4]; IPA, 50° C., 9 days): Tartrate (Form 1); XRPD result after slurry ([4]; IPA/H2O 70/30, aw = 0.94, RT): Tartrate (Form 1); XRPD result after slurry ([4]; MEK, 50° C., 9 days): Tartrate (Form 1); XRPD result after slurry ([4]; MeOH, RT): Tartrate (Form 1); XRPD result after slurry ([4]; MeOH/H2O 95/5, aw = 0.16, RT): Tartrate (Form 1); XRPD result after slurry ([4]; THF/H2O 50/50, aw = 1.00, 5° C.): Tartrate (Form 1); XRPD result after slurry ([4]; acetone/H2O 50/50, aw = 0.91, 5° C.): Tartrate (Form 1)
COc1cc(CCN)c(OC)cc1Br.O=S(=O)(O)c1ccccc1 [Besylate (Form 1), 2C-B besylate]			Slightly		slightly hygroscopic	0.7	0.2 mol	Consistent with Besylate (Form 1)			does not undergo form conversion					Did not deliquesce	not observed	5-95% RH: 0.7%	95-5% RH: 0.7% loss	5-95% RH: 0.7% gain	
COc1cc(CCN)c(OC)cc1Br.O=C(O)CC(O)(CC(=O)O)C(=O)O [Citrate (Form 2), 2C-B Citrate]			Slightly		slightly hygroscopic	0.5	0.1 mol	Consistent with Citrate (Form 2)			form change does not occur					Did not deliquesce	not observed	5-95% RH: 0.5%	95-5% RH: 0.5% loss	5-95% RH: 0.5% gain	
COc1cc(CCN)c(OC)cc1Br.O=C(O)c1cc(O)ccc1O [Gentisate, 2C-B gentisate]			Non-hygroscopic;	0.20	non-hygroscopic	0.2	0.05 mol	Crystalline, consistent			form change does not occur					Did not deliquesce	not observed; also recorded: does not deliquesce	5-95% RH: 0.2%	95-5% RH: 0.2% loss	5-95% RH: 0.2% gain	
COc1cc(CCN)c(OC)cc1Br.CS(=O)(=O)O [Mesylate, 2C-B mesylate]	RH: 2.7%	RH: 4.5% gain	Hygroscopic; <85%		hygroscopic	7.2	approximately 1.5 moles	Consistent with Mesylate	85-5% RH: 3.0% loss	95-85% RH: 4.4% loss	form change is not apparent by XRPD	Total loss: 7.4%	5-85% RH: 2.7% gain	85-95% RH: 4.5% gain	Total gain: 7.2%	Did not deliquesce	not observed				
COc1cc(CCN)c(OC)cc1Br.O=S(=O)(O)O [Sulfate, 2C-B sulfate]	RH: 0.8%	RH: 1.4%	Slightly	2.2	slightly hygroscopic	2.2	approximately 0.5 moles	Consistent with Sulfate	85-5% RH: 0.8% loss	95-85% RH: 1.3% loss	form change does not occur	Total loss: 2.1%	5-85% RH: 0.8% gain	85-95% RH: 1.4% gain	Total gain: 2.2%	Did not deliquesce	not observed				Water uptake (5-85% RH) % [1]: 0.8%; Water uptake (85-95% RH) % [1]: (5-85), 1.4 (85-95) %
COc1cc(CCN)c(OC)cc1Br.O=C(O)C(O)C(O)C(=O)O [Tartrate (Form 1), 4-bromo-2,5-dimethoxyphenethylamine (2C-B) tartrate]			Non-hygroscopic;	0.1	non-hygroscopic	0.1		Crystalline, consistent			Form change does not occur					Did not deliquesce	not observed; also recorded: does not deliquesce	5-95% RH: 0.1%	95-5% RH: 0.1% loss	5-95% RH: 0.1% gain	
